Measured values published in ChEMBL document CHEMBL5223149, “The Emerging Landscape of Small-Molecule Therapeutics for the Treatment of Huntington's Disease” (J Med Chem, 2022).
pEC50, pIC50, pKd: −log10 of the molar value. Converted amounts (≈) assume the structure as drawn. Blank lines part the entries; values can stand above or below the compound they belong to.

Key:
Huntingtin [1] = biological target: T1, Huntingtin (Homo sapiens, UniProt P42858); assay: Inhibition of HTT (unknown origin)
Target sequence in this assay (P42858 whole entry): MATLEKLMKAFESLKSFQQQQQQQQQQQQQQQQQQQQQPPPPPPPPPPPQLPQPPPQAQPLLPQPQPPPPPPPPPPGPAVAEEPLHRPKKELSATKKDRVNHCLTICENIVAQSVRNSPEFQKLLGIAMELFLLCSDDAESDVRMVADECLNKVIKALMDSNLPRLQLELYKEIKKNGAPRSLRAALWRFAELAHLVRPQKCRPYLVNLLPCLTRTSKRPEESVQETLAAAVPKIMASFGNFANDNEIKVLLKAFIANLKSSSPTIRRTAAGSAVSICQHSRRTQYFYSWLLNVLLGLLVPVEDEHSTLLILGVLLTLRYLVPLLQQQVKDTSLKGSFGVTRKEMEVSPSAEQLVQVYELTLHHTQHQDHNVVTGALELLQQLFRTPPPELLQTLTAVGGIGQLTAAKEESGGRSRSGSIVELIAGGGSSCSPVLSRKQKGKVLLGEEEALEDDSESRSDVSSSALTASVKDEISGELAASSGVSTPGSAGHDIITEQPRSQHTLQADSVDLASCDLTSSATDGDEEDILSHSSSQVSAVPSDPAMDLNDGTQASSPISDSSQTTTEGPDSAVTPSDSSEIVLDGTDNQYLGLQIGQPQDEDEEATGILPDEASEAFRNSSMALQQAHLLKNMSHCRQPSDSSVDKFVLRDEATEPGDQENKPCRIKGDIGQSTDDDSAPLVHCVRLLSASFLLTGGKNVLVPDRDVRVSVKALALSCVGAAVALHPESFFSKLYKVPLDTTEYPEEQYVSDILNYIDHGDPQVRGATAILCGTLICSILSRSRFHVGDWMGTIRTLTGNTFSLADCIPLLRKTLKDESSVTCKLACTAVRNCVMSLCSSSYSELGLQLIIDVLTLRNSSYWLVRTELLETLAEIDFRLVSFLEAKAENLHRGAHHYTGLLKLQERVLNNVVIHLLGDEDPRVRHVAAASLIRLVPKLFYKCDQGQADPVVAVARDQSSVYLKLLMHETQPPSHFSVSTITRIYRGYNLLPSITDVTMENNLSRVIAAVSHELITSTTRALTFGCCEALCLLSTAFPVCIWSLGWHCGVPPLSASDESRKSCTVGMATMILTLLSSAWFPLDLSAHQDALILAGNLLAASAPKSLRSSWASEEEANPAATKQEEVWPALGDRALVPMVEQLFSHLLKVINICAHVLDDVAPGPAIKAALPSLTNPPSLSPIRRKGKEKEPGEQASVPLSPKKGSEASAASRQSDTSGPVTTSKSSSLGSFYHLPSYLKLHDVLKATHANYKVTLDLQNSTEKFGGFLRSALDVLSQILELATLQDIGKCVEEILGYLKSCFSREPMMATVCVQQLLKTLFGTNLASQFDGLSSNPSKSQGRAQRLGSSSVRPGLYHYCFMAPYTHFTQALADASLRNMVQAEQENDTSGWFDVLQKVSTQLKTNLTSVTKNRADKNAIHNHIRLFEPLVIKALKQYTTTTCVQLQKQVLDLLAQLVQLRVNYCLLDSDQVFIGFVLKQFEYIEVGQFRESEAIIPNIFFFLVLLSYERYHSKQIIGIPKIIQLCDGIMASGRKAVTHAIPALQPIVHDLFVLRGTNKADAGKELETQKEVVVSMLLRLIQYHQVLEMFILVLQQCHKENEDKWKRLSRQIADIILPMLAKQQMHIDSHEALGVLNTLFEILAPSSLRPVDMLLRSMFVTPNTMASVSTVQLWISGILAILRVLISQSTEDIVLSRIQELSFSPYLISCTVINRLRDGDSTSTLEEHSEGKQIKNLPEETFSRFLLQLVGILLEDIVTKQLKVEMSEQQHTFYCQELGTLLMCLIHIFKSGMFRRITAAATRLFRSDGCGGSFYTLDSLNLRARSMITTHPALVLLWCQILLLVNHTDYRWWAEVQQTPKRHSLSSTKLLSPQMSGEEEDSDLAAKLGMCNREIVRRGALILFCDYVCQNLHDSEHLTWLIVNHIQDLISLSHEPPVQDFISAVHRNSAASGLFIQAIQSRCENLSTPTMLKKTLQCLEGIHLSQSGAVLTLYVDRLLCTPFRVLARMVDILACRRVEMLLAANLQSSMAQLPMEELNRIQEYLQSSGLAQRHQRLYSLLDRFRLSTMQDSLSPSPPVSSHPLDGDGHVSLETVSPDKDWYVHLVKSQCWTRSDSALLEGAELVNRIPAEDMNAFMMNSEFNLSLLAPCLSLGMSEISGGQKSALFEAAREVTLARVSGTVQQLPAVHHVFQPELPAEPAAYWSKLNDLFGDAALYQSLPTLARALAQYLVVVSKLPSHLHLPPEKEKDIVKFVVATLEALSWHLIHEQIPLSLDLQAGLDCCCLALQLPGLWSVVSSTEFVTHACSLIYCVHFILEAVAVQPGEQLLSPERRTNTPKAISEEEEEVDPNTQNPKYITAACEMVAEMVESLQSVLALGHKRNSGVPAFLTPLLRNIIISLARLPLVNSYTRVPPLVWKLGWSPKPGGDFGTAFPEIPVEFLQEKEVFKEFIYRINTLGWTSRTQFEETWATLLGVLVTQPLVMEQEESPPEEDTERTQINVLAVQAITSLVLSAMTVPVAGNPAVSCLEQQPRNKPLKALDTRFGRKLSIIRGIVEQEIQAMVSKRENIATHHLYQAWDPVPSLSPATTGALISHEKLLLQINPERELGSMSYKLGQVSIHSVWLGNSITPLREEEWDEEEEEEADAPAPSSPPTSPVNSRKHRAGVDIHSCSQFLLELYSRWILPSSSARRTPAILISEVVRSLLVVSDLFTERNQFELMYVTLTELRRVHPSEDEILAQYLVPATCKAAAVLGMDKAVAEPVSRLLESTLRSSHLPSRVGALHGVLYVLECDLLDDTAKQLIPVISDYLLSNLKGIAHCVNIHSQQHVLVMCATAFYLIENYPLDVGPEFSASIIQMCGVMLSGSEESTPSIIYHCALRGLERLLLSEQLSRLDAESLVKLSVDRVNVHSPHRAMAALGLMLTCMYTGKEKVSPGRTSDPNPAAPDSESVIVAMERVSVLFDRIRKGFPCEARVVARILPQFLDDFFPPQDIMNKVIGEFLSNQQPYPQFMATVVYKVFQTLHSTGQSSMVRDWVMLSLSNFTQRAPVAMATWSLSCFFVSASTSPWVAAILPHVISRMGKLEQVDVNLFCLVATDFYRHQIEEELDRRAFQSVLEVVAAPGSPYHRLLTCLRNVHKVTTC

[2] = biological target: NAD(P)H dehydrogenase [quinone] 1 (Homo sapiens) (UniProt P15559); assay: Inhibition of NQO1 (unknown origin)
NAD(P)H dehydrogenase [quinone] 1 (Homo sapiens), sequence (P15559 whole entry): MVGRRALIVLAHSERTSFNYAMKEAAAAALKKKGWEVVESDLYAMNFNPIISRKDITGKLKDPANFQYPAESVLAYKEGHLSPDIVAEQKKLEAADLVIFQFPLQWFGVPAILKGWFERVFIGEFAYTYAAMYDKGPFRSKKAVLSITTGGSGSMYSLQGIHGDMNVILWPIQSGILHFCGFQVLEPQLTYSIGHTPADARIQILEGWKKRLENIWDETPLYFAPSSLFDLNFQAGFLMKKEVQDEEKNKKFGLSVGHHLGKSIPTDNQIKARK

[3] = biological target: BDNF/NT-3 growth factors receptor (Homo sapiens) (UniProt Q16620); assay: Activation of TrkB (unknown origin) relative to control; settings: filed as activator
Homo sapiens [4] = species on record: Homo sapiens; assay: Activation of MAPK (unknown origin) relative to control; settings: filed as activator
[5] = biological target: Mitogen-activated protein kinase 10 (Homo sapiens, UniProt P53779); assay: Inhibition of JNK3 (unknown origin)
Mitogen-activated protein kinase 10, sequence (P53779 whole entry): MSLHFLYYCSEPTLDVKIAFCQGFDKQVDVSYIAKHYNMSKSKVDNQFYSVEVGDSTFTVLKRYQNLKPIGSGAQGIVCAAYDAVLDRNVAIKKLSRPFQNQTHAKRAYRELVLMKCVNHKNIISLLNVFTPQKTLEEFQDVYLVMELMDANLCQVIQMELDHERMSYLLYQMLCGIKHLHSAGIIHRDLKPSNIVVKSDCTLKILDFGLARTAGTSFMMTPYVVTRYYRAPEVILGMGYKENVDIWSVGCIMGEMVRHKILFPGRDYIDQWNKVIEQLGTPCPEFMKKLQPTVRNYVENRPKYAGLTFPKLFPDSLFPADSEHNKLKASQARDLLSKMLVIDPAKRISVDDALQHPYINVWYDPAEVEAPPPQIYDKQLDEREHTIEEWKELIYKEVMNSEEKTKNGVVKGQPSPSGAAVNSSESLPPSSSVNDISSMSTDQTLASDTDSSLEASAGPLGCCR

Huntingtin [6] = biological target: T1, Huntingtin; assay: Inhibition of mutant HTT (unknown origin) mediated HD exon 1 protein aggregation
Target sequence in this assay (P42858 whole entry, looked up, change not shown): as the sequence (P42858 whole entry) above

Huntingtin [7] = biological target: T1, Huntingtin; assay: Inhibition of mutant HTT (unknown origin)
Target sequence in this assay (P42858 whole entry, looked up, change not shown): as the sequence (P42858 whole entry) above

Histone deacetylase 4 = Histone deacetylase 4 (Homo sapiens, UniProt P56524); assay: Inhibition of HDAC4 (unknown origin)
Histone deacetylase 4, sequence (P56524 whole entry): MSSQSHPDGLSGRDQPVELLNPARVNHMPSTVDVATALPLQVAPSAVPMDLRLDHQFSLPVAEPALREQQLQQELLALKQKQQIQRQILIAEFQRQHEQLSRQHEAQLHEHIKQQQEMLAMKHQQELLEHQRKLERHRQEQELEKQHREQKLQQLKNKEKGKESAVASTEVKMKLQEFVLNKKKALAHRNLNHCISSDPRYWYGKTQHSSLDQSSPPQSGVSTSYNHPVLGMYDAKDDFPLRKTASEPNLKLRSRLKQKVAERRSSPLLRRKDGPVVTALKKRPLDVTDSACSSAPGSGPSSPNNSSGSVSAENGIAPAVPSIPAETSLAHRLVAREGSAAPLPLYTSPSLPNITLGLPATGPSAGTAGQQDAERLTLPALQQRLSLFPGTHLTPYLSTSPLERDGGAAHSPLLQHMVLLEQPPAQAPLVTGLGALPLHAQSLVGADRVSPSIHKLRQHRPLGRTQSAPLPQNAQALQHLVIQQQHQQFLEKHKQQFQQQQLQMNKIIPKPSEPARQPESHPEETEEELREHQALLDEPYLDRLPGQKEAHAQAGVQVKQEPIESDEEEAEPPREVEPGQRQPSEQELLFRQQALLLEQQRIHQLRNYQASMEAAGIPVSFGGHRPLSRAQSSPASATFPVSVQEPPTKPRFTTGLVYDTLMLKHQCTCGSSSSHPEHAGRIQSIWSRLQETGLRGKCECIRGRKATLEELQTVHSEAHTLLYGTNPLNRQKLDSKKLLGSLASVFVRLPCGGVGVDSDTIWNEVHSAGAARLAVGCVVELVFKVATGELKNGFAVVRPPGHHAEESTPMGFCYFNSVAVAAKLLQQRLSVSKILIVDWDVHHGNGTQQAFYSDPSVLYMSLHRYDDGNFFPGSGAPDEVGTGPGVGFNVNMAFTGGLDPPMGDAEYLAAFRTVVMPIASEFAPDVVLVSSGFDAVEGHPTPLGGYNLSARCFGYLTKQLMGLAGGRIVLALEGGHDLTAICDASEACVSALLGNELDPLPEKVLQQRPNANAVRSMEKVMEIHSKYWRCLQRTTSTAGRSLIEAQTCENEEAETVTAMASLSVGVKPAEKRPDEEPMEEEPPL

[8] = biological target: Mitogen-activated protein kinase 14 (Homo sapiens, UniProt Q16539); assay: Inhibition of p38alpha (unknown origin)
[9] = Inhibition of PDI (unknown origin); set-up: species or system Homo sapiens
[10] = biological target: T2, Muscleblind-like protein 1 (Homo sapiens, UniProt Q9NR56); assay: Binding affinity to MBNL1 (unknown origin)
T2 sequence (Q9NR56 whole entry): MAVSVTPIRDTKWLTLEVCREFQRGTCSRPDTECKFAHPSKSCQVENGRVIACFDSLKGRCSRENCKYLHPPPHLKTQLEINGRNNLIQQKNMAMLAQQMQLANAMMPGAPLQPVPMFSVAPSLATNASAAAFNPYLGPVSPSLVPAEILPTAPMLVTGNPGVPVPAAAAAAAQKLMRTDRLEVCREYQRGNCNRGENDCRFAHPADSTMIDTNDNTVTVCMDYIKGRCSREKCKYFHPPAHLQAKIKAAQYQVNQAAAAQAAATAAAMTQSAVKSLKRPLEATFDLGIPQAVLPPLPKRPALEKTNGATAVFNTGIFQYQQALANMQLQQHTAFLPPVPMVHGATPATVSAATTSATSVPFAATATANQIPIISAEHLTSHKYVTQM

[11] = biological target: Kelch-like ECH-associated protein 1 (Homo sapiens, UniProt Q14145); assay: Inhibition of KEAP1 (unknown origin)
[12] = biological target: cAMP and cAMP-inhibited cGMP 3',5'-cyclic phosphodiesterase 10A (Homo sapiens, UniProt Q9Y233); assay: Inhibition of PDE10A (unknown origin)
[13] = biological target: Kynurenine 3-monooxygenase (Homo sapiens, UniProt O15229); assay: Inhibition of KMO (unknown origin)
Huntingtin [14] = biological target: T1, Huntingtin; assay: Binding affinity to mutant HTT (unknown origin) mediated HD exon 1-72Q aggregation assessed as dissociation constant
Target sequence in this assay (P42858 whole entry, looked up, change not shown): as the sequence (P42858 whole entry) above

[15] = biological target: Microtubule-associated protein 1 light chain 3 beta (Homo sapiens, UniProt Q9GZQ8); assay: Binding affinity to LC3B (unknown origin) assessed as dissociation constant
[16] = test system: Huntingtin (Homo sapiens), P42858 [UNDEFINED MUTATION]; assay: Inhibition of mutant HTT (unknown origin) at 100 nM relative to control
Huntingtin (Homo sapiens), P42858 [UNDEFINED MUTATION], sequence (P42858 whole entry, looked up, change not shown): as the sequence (P42858 whole entry) above

[17] = biological target: T3, 1-phosphatidylinositol 4,5-bisphosphate phosphodiesterase gamma-1 (Homo sapiens) (UniProt P19174); assay: Activation of PLCgamma1 (unknown origin) at 1 mM relative to control; settings: filed as activator
T3 sequence (whole entry): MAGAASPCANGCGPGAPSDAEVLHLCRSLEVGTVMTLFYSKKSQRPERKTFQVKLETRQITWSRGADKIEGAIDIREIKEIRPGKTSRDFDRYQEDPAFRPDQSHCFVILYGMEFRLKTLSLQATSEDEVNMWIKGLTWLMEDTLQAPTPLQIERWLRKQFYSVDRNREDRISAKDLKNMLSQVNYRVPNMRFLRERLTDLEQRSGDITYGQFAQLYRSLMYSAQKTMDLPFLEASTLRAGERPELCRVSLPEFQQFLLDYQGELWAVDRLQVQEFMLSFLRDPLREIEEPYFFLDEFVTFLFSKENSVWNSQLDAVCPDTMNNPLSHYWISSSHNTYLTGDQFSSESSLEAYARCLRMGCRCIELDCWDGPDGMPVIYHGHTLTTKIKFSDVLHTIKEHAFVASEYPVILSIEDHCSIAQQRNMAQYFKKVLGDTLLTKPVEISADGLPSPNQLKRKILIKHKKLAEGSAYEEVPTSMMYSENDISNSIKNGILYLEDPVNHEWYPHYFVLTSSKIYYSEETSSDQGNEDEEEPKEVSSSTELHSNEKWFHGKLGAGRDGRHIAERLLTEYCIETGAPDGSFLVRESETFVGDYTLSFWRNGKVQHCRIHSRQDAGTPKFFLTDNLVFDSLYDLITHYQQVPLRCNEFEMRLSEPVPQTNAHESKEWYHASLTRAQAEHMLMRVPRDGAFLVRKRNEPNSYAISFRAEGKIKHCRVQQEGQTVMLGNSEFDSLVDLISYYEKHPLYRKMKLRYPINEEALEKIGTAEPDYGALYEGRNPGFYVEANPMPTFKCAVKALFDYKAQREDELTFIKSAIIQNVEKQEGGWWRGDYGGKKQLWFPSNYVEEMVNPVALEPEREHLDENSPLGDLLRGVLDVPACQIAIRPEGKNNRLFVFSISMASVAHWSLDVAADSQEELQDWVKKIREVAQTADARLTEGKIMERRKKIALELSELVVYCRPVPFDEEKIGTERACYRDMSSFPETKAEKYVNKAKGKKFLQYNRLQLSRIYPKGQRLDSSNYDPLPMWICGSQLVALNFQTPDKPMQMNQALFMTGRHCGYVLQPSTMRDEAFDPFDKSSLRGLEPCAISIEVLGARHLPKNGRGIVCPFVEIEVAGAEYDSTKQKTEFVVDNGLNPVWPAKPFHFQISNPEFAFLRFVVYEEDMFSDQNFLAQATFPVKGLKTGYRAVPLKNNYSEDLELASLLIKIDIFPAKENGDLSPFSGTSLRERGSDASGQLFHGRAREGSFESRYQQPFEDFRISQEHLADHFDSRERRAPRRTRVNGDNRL

Homo sapiens [18] = species on record: Homo sapiens; assay: Activation of TrkB Y816 mutant (unknown origin) at 1 mM relative to control; settings: filed as activator

SMILES: C[C@@H](N)[C@H]1CC[C@H](C(=O)Nc2ccncc2)CC1 [Y-27632]
pIC50 (Huntingtin [1]): 5.30

SMILES: O=[N+]([O-])c1ccc(Sc2nnc(COc3ccccc3)n2-c2ccccc2)nc1
CD [2]: 0.15 µM

SMILES: CC(C)C(C)Nc1cc(-c2[nH]c(SCCO)nc2-c2ccc(F)cc2)ccn1 (stereo unspecified)
pIC50 [5]: 6.74

SMILES: Cc1cc(O)c(C)c2sc(N)nc12
pIC50 (Huntingtin [6]): 4.40

SMILES: Nn1cnc2c(c1=O)C1(CCCC1)Cc1ccccc1-2
pEC50 (Huntingtin [7]): 5.31

SMILES: C[C@H]1CCCN1[C@@H](C)NC(=O)c1ccc(-c2noc(C(F)(F)F)n2)cc1
pIC50 (Histone deacetylase 4): 7.40

SMILES: CSc1nc(-c2ccc(F)cc2)c(-c2ccnc(Nc3ccc(NC(=S)Nc4ccc5c(c4)C(=O)OC54c5ccc(O)cc5Oc5cc(O)ccc54)cc3)c2)[nH]1
pIC50 [5]: 7.32
pIC50 [8]: 7.59

SMILES: COC(=O)C1(C)c2[nH]c3ccccc3c2CCN1C(=O)CCl (stereo unspecified)
pEC50 [9]: 5.82
IC50 [9]: 22 µg/mL (≈ 68.6 µM)

SMILES: O=c1c(O)c(-c2cc(O)c(O)c(O)c2)oc2cc(O)cc(O)c12 [MYRICETIN]
pKd [10]: 9.60

SMILES: O=C(O)[C@H]1CCC[C@H]1C(=O)N1CCc2c(O)cccc2[C@H]1CN1C(=O)c2ccccc2C1=O
pIC50 [11]: 7.01

SMILES: COc1ccc2occ(CCc3nc4cc(C)ccc4n3-c3ccccc3)c(=O)c2c1
pIC50 [12]: 7.77

SMILES: Cc1ccc2c(c1)nc(CCc1coc3ccc(Br)cc3c1=O)n2-c1ccccc1
pIC50 [12]: 7.77

SMILES: O=C(O)c1cc(-c2ccc(OC3CC3)c(Cl)c2)ncn1
pIC50 [13]: 6.30

SMILES: O=C1Nc2ccc(I)cc2/C1=C/c1cc(Br)c(O)c(Br)c1
pKd (Huntingtin [14]): 7.00
pKd [15]: 7.00
inhibition [16]: 25%

SMILES: Nc1nc(C(=O)N2N=C3CCCCC3C2(O)C(F)(F)F)cs1 (stereo unspecified)
pIC50 (Huntingtin [1]): 5.74

The next lines start with the values.

Activity [3]: 125%
Activity (Homo sapiens [4]): 125%
SMILES: CN(C)c1ccc(-c2cc(=O)c3ccc(O)c(O)c3o2)cc1

pIC50 [5]: 6.69
SMILES: COCCn1c(SC)nc(-c2ccc(F)cc2)c1-c1ccnc(NC(C)=O)c1

pIC50 (Huntingtin [1]): 5.12
SMILES: Cc1cccc(OCC(=O)Nc2ccc(Nc3ccccc3)cc2)c1

pIC50 (Huntingtin [1]): 4.92
SMILES: CCCc1cc(OC(=O)c2ccccc2F)n(-c2cccc(F)c2)n1

pEC50 (Huntingtin [7]): 4.76
SMILES: C/C(=C/C(=O)c1ccc(Cl)cc1)Nc1cccc(O)c1

pKd [10]: 7.03
SMILES: COc1ccc(C(=O)c2nc3c(c(-c4ccccc4)c2N)c(=O)oc2ccccc23)cc1

pKd [10]: 10.96
SMILES: Cc1cc2ccccc2nc1-c1ccccc1F

Activity [17]: 400%
Activity (Homo sapiens [18]): 90%
SMILES: O=c1cc(-c2ccccc2)oc2c(O)c(O)ccc12

pIC50 (Huntingtin [1]): 5.30
SMILES: Cc1ccccc1OCC(=O)Nc1ccc(Nc2ccccc2)cc1

pIC50 (Histone deacetylase 4): 7.27
SMILES: O=C(NO)C(c1cccc(-c2ccc(C(F)(F)F)cc2)c1)c1ccccc1F (stereo unspecified)
